Results taken from patent US8691184B2, “Bcl-2/Bcl-xL inhibitors and therapeutic methods using the same” (The Regents of the University of Michigan, priority 2011, dated 2014).

Columns and labels:
RS4;11 cells = experiment: Cell growth assay (WST-8), RS4;11; assay type: cell-based; settings: Homo sapiens, RS4-11, 96 h; Table 3, 4 days; read-out: Cell Growth Inhibition (IC50 ± SD) RS4; 11
Description: (§1) RS4;11 and H146 cells were seeded in 96-well cell culture plates at a density of 10,000 cells/well with serially diluted compounds and incubated at 37° C. in an atmosphere of 95% air and 5% CO2 for 4 days. Cell viability was determined using the WST-8 (2-(2-methoxy-4-nitrophenyl)-3-(4-nitrophenyl)-5-(2,4-disulfophenyl)-2H-tetrazolium, monosodium salt) based Cell Counting-8 Kit (Dojindo Molecular Technologies, Inc., Rockville, Md.) according to the manufacture's instruction. Briefly, WST-8 was added to each well at a final concentration of 10% (v/v), and then the plates were incubated at 37° C. for 1˜2 hours for color development. The absorbance was measured at 450 nm using a SPECTRAmax PLUS plate reader (Molecular Devices, Sunnyvale, Calif.). The half maximal inhibitory concentration (IC50) was calculated using the GraphPad Prism 5 software (GraphPad Software, La Jolla, Calif.).

H146 cells = experiment: Cell growth assay (WST-8), H146; assay type: cell-based; settings: Homo sapiens, NCI-H146, 96 h; Table 3, 4 days; read-out: Cell Growth Inhibition (IC50 ± SD) H146
Description: as §1

[1] = system: ML-2 acute myeloid leukemia (AML) cell line; experiment: Cell growth assay (WST-8), ML-2; assay type: cell-based; settings: Table 3; read-out: Cell Growth Inhibition (IC50 ± SD) ML-2
[2] = system: H146 small-cell lung cancer cell line; experiment: Cell death assay (trypan blue), H146; assay type: cell-based; settings: for Cell death induction in H146: trypan blue assay; for H146 cells undergoing cell death: 24-hr treatment, trypan blue
Description: Cell death assay was performed using a Trypan blue exclusion test of cell viability. One million cells were seeded in 6-well plates and incubated at 37° C. in an atmosphere of 95% air and 5% CO2 with or without compounds for the indicated time points. At the end of treatment, cells were collected and centrifuged at 1000 rpm for 5 minutes. The cell pellets were re-suspended in PBS and mixed with 0.4% Trypan blue (Invitrogen) at 1:1 dilution to determine cell viability using Olympus CKX41 microscope (Olympus, Center Valley, Pa.).

ML-2 AML cell line = experiment: Apoptosis assay (Annexin-V/PI flow cytometry), ML-2; assay type: cell-based; settings: 300 nM, 24 hr
Description: (§2) Apoptosis assay was performed using the Annexin-V-FLUOS Staining kit (Roche Diagnostics, Indianapolis, Ind.) according to the manufacturer's instruction. Briefly, cells were treated with compounds for the indicated time points, harvested and washed with PBS. Cells were stained with Annexin V-FITC and Propidium iodide for 15 minutes at room temperature in the dark before analyzed with a BD Biosciences FACSCaliburs (Becton Dickinson).

RS4;11 cell line [3] = experiment: Apoptosis assay (Annexin-V/PI flow cytometry), RS4;11; assay type: cell-based; settings: for Apoptosis induction in RS4;11: time- and dose-dependent; for Apoptosis induction in RS4;11 / RS4;11 cells undergoing apoptosis: Annexin-V/PI; for RS4;11 cells undergoing apoptosis: within 4 hrs
Description: as §2

RS4;11 cell line [4] = experiment: Western blot of PARP and caspase-3 cleavage, RS4;11; assay type: cell-based; settings: as low as 100 nM, 8-hr treatment
Description: (§3) Cells were lysed with lysis buffer (PBS containing 1% NP40, 0.5% Na-deoxycholate, and 0.1% SDS) supplemented with protease inhibitors (α-complete, Roche). The protein extracts were quantified using a calorimetric assay (Bradford Reagent) (BioRad, Hercules, Calif.). Proteins were electrophoresed onto 4-20% SDS-PAGE gels (Invitrogen) and transferred onto polyvinylidene difluoride membranes (Bio-Rad). Following blocking in 5% milk, membranes were incubated with a specific primary antibody, washed, and incubated with horseradish peroxidase-linked secondary antibody (Pierce). The signals were visualized with the chemiluminescent horseradish peroxidase antibody detection reagent (Denville Scientific).

H146 cell line [5] = experiment: Western blot of PARP and caspase-3 cleavage, H146; assay type: cell-based; settings: as low as 100 nM, 8-hr treatment
Description: as §3

ML-2 cell line = experiment: Western blot of PARP and caspase-3 cleavage, ML-2; assay type: cell-based; settings: as low as 100 nM, 8-hr treatment
Description: as §3

cellular Bcl-2/Bcl-xL = experiment: Competitive pull-down against Biotin-150 in ML-2 and H146 cell lysates; assay type: binding; settings: competitive experiment
H146 cell line [6] = experiment: Cytochrome c and Smac release assay, H146; assay type: cell-based; settings: H146, 300 nM, within 2 hr
Description: (§4) Four million of H146 or RS4;11 cells were treated with compounds at 37° C. in an atmosphere of 95% air and 5% CO2 for the indicated time points, washed with PBS and re-suspended in 100 μl of digitonin buffer (75 mM NaCl, 8 mM Na2HPO4, 1 mM NaH2PO4, 1 mM EDTA, 350 μg/ml digitonin, and 250 mM sucrose). Cytosolic fractions were separated from organelle membrane fraction by centrifugation at 13,000 rpm for 1 min. The cytosolic fractions were resolved on a 12% SDS-PAGE and probed using anti-cytochrome c antibody (BD Biosciences) and anti-Smac (Cell Signaling Technology, Danvers, Mass.) antibody.
(§5) Potent and bona fide Bcl-2/Bcl-xL inhibitors are predicted to induce apoptosis in cancer cells by binding to cellular Bcl-2 and Bcl-xL proteins, antagonizing their anti-apoptotic function and triggering rapid release of Smac and cytochrome c from mitochondria. Furthermore, the release of Smac and cytochrome c should take place before apoptosis. Accordingly, compound 150 was tested for its ability to induce cytochrome c and Smac release in the RS4;11 and H146 cell lines.

RS4;11 cell line [7] = experiment: Cytochrome c and Smac release assay, RS4;11; assay type: cell-based; settings: RS4;11, 100 nM, within 30 minutes
Description: as §4, §5

[8] = Toxicity (maximum tolerated dose) in SCID mice; assay type: in vivo
Description: These experiments established the maximum tolerated doses (MTD).

Bcl-2 = Bcl-2 (Homo sapiens, UniProt P10415); experiment: FP-based binding assay, Bcl-2
Bcl-2, sequence (P10415 whole entry): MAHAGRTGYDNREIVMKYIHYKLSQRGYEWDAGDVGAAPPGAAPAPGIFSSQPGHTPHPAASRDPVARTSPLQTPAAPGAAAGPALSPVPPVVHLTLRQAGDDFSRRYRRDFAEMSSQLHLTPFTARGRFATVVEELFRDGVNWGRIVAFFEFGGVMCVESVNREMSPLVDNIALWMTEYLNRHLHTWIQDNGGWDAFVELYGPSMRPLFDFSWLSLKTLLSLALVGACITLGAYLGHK

Bcl-xL = Bcl-xL (Homo sapiens, UniProt Q07817); experiment: FP-based binding assay, Bcl-xL; settings: Table 2, FP-based assay
Bcl-xL, sequence (Q07817 whole entry): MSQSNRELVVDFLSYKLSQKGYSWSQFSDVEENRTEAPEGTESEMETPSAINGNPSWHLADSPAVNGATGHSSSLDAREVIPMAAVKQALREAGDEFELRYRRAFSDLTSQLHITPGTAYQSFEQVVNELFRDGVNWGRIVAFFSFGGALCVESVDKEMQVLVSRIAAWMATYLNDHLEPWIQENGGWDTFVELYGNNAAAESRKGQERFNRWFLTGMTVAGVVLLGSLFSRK

Compound	IC50 (RS4;11 cells)	IC50 (H146 cells)	IC50 [1]	Cell death induction in H146 [2]	ML-2 cells undergoing apoptosis (ML-2 AML cell line)	Apoptosis induction in RS4;11 (RS4;11 cell line [3])	Cleavage of PARP and caspase-3 (RS4;11 cell line [4])	Cleavage of PARP and caspase-3 (H146 cell line [5])	Cleavage of PARP and caspase-3 (ML-2 cell line)	Blocking of interaction of cellular Bcl-2/Bcl-xL with Biotin-150 (cellular Bcl-2/Bcl-xL)	further results
CN(C)CC[C@H](CSc1ccccc1)Nc1ccc(S(=O)(=O)NC(=O)c2ccc(N3CCN(Cc4ccccc4-c4ccc(Cl)cc4)CC3)cc2)cc1[N+](=O)[O-] [ABT-737, reference compound]	12 ± 6 nM	62 ± 39 nM	16 ± 2 nM	effectively induced cell death	about 50%	highly effective in induction of apoptosis	highly effective in induction of cleavage of PARP and caspase-3	highly effective in induction of cleavage of PARP and caspase-3	highly effective in induction of cleavage of PARP and caspase-3	blocked the interaction of cellular Bcl-2/Bcl-xL and Biotin-150 in a dose-dependent manner	
Cc1c(C(=O)NCCCN2CCN(C)CC2)c(-c2cccc(N3CCN(c4ccc(NS(=O)(=O)c5ccc(N[C@H](CCN(C)C)CSc6ccccc6)c([N+](=O)[O-])c5)cc4)CC3)c2)c(-c2ccc(Cl)cc2)n1C [Compound 150]	38 ± 24 nM	102 ± 44 nM	185 ± 84 nM	effectively induced cell death	about 50%	highly effective in induction of apoptosis	highly effective in induction of cleavage of PARP and caspase-3	highly effective in induction of cleavage of PARP and caspase-3	highly effective in induction of cleavage of PARP and caspase-3	blocked the interaction of cellular Bcl-2/Bcl-xL and Biotin-150 in a dose-dependent manner	H146 cells undergoing cell death ([2]; 30 nM): 40%; H146 cells undergoing cell death ([2]; 100 nM): > 70%; RS4;11 tumor cells undergoing apoptosis (RS4;11 cell line [3]; 100 nM, 16 hr time-point): > 50%; RS4;11 cells undergoing apoptosis (RS4;11 cell line [3]; 100 nM): 30%; RS4;11 cells undergoing apoptosis (RS4;11 cell line [3]; 300 nM): 60%; Release of cytochrome c and Smac from mitochondria (H146 cell line [6]): strong release of cytochrome c and Smac; Release of cytochrome c and Smac from mitochondria (RS4;11 cell line [7]): robust release of cytochrome c and Smac; Weight loss at higher dose ([8]; SCID mice, 50 mg/kg): caused weight loss; Weight loss or other signs of toxicity ([8]; female SCID mice, intravenously, daily, 5-times a week for 2 weeks, 25 mg/kg): no or minimal weight loss or other signs of toxicity; Ki (Bcl-2): < 1 nM; IC50 (Bcl-2; read-out: Bcl-2 IC50 ± SD, Table 2, FP-based assay): 2 ± 0.6 nM; IC50 (Bcl-xL; read-out: Bcl-xL IC50 ± SD): 9 ± 2 nM; Ki (Bcl-xL; read-out: Bcl-xL Ki ± SD, no unit printed in this row): 2.4 ± 0.5 nM
